According to ChEMBL document CHEMBL3046081, “Phytotoxic effect, uptake, and transformation of biochanin A in selected weed species” (J Agric Food Chem, 2012):

Key:
[1] = test system: Leaf; assay: Drug recovery in leaf of Secale cereale (rye) at 50 ng/g by LC-MS analysis
[2] = test system: Leaf; assay: Drug recovery in leaf of Secale cereale (rye) at 5 ng/g by LC-MS analysis

| Drug recovery [1] [%] | Drug recovery [2] [%] | SMILES |
| --- | --- | --- |
| 65 | 81 | O=c1c(-c2ccc(O)cc2)coc2cc(O)cc(O)c12 [GENISTEIN] |
| 76 | 104 | COc1ccc(C2COc3cc(O)cc(O)c3C2=O)cc1 (configuration not stated) [DIHYDROBIOCHANIN A] |
| – | 98 | COc1ccc(-c2coc3cc(O)cc(O)c3c2=O)cc1O [PRATENSEIN] |
| 81 | 79 | O=C(O)/C=C/c1ccc(O)cc1 [COUMARIC ACID] |
